This is an account of results in the NIST ThermoML archive (doi:10.1016/j.jct.2018.09.029).

This data set is described as follows: Boiling temperature at pressure P. The note with it: 82.6 kPa; Liquid; Ebulliometric method (Recirculating still).

Molecules are shown by their SMILES. Numbers after ± are expanded uncertainties.

Consider `O` [water], for which the “Boiling temperature at pressure P” value was determined as 94.41 ± 0.63 °C.
